The target in one data set is HSP70 ATPase (Homo sapiens, UniProt P0DMV8). The data set can be described thus: ATPase activity of immuno-precipitated HSP70-GFP. Conditions: 30 nM - 1 μM, 30 min at 37 °C.
For the next data set, the system named is HSP90 ATPase. The data set can be described thus: ATPase activity of immuno-precipitated FLAG-tagged HSP90. The note with it: 30 nM - 1 μM, 30 min at 37 °C.
In data set [1] the test system is influenza A and B viruses. The data set can be described thus: Influenza virus-mediated cell lysis, live/dead assay in MRC5 cells. It is filed as cell-based, human.
In another data set the target is HSP27 (Homo sapiens, UniProt P04792). The data set can be described thus: Immuno-fluorescence of HSP27 expression in GBM cells. The note with it: GBM5, GBM6, GBM12 cells, 0–3.0 μM, 3 h.
For data set [2], the system named is glucosidase I, glucosidase IIα, glucosidase IIβ. The data set can be described thus: Immuno-fluorescence of glucosidases in GBM12 cells. The note with it: 2.0 μM, 6 h. Type of data set: cell-based.
The subject of another data set is NPC1 and TIM1. It is filed as cell-based.
In the next data set the test system is Ebola virus. Type of data set: cell-based.
Another data set concerns Junin virus (JUNV). Type of data set: cell-based.
The test system of the next data set is HSP90, GRP78, and HSP70. The data set can be described thus: Immuno-fluorescence detection of chaperones in fixed cells. The note with it: HuH7 and HT1080, 0–3.0 μM ± sildenafil 2 μM, 2 h.
The subject of data set [3] is mTOR Serine 2448 phosphorylation. Type of data set: cell-based. Conditions: GBM5 cells, single agent 2.0 μM, 6 h.
In data set [4] the test system is rabbit hemorrhagic disease virus (RHDV). The data set can be described thus: Rabbit hemorrhagic fever virus studies. It is filed as in vivo.

This note sets out measurements from publication PMC6327852 (Journal of cellular physiology, 2016).

SMILES strings stand for the structures.

HSP70 ATPase, sequence (P0DMV8 whole entry): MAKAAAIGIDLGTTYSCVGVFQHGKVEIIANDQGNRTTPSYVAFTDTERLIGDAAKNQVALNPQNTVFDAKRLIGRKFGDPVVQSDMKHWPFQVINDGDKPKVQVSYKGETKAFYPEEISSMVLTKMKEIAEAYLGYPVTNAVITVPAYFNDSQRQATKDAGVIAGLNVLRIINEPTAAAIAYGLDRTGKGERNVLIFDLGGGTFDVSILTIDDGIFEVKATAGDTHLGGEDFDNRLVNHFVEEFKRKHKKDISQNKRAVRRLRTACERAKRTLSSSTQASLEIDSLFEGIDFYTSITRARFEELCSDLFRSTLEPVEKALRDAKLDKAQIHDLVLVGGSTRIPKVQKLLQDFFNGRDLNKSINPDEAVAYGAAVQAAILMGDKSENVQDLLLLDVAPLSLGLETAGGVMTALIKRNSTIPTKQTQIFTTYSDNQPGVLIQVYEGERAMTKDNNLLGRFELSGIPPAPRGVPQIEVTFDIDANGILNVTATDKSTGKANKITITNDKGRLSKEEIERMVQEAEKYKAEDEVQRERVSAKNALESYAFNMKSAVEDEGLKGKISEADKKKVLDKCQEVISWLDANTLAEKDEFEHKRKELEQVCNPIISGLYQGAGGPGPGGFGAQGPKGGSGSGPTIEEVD
HSP27, sequence (P04792 whole entry): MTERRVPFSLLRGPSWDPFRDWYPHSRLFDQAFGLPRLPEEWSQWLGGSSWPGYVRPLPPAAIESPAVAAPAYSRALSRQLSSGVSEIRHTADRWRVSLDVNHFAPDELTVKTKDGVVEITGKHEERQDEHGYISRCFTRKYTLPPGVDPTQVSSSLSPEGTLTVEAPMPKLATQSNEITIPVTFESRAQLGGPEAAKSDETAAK

With `Cc1ccc(Nc2nccc(N(C)c3ccc4c(C)n(C)nc4c3)n2)cc1S(N)(=O)=O` [pazopanib], on HSP70 ATPase, the “effect on HSP70 ATPase activity” value is “inhibitory effects”. Besides, the “effect on HSP90 ATPase activity” value with HSP90 ATPase is “inhibitory effects”. Further, the “influenza virus-mediated cell lysis / cell killing” value in data set [1] is given as “reduced cell lysis / cell killing”.

In the case of `CNC(=O)c1cc(Oc2ccc(NC(=O)Nc3ccc(Cl)c(C(F)(F)F)c3)cc2)ccn1` [sorafenib, reference compound], the “expression of HSP27” value at HSP27 is on record as “reduced”. In addition, the “effect on HSP70 ATPase activity” value on HSP70 ATPase is listed as “inhibitory effects”. For the same compound, in [2], the “expression of glucosidase I and glucosidase IIα” value is recorded as “rapidly reduced the expression”; the “expression of glucosidase IIβ” value is listed as “did not impact”. In the data set on HSP90 ATPase, the “effect on HSP90 ATPase activity” value was “inhibitory effects”. For the same compound, in data set [1], the “influenza virus-mediated cell lysis / cell killing” value is given as “reduced cell lysis / cell killing”.

For the compound `NCC(=O)Nc1ccc(-n2nc(C(F)(F)F)cc2-c2ccc3c(ccc4ccccc43)c2)cc1` [AR-12], the “expression of Ebola virus receptors NPC1 and TIM1 in vitro” value in the data set with NPC1 and TIM1 is recorded as “reduced the expression”. Besides, the “Ebola virus replication in vitro” value in the data set on Ebola virus is given as “suppressed the replication”. Further, at HSP27, the “expression of HSP27” value is listed as “reduced”. In addition, the “effect on HSP70 ATPase activity” value on HSP70 ATPase was “inhibitory effects”. Besides, in data set [2], the “expression of glucosidase I and glucosidase IIα” value is recorded as “rapidly reduced the expression”; the “expression of glucosidase IIβ” value is on record as “did not impact”. Further, in the data set on Junin virus (JUNV), the “JUNV infected cells expressing viral nucleoprotein NP” value was “drastically reduced” and the “replication of different strains of JUNV” value is reported as “potently inhibited”. Further, in the data set with HSP90 ATPase, the “effect on HSP90 ATPase activity” value is “inhibitory effects”. Also, the “presence in mouse brain tissue 48 h after dosing” value (48 h after dosing) was “still detectable”. Further, where the note is “mouse, IV bolus 10 mg/kg”, the peak brain concentration was 2 µM and the “time to cross the blood brain barrier after dosing” value was at most 5 min. The “detection of HSP90, GRP78, and HSP70 in fixed in situ cells” value with HSP90, GRP78, and HSP70 is “rapid dose- and time-dependent reduction”. Besides, in data set [3], the “mTOR Serine 2448 phosphorylation” value is recorded as “strongly reduced”. Also, the “animals that had died” value in [4] ([…], vehicle approximately 70% at 60 h, P < 0.05, 25 mg/kg) is given as “approximately 30%”. Further, in [4] (rabbits, RHDV, 25 mg/kg x4), the “liver damage assessed by H&E staining of liver sections” value is reported as “reduced obvious liver damage”; the “virus-induced increases in plasma ALT, LDH, and GGT levels” value was “significantly reduced”. For the same compound, the “expression of virus protein VP60 mRNA in liver” value in [4] (rabbits, RHDV, at the time of animal nadir, quantitative RT-PCR) was “less expression”. In addition, the “influenza virus-mediated cell lysis / cell killing” value in data set [1] is given as “reduced cell lysis / cell killing”.
